# In patent US9539221B2, “Method of treating airway diseases with β-adrenergic inverse agonists” (EGB ADVISORS, LLC, priority 2003, dated 2017):
# Entries after “also recorded” stand apart in the source; their conditions may differ.
# Key:
# tracheas from the mice = conditions: asthmatic mice chronically treated; WO 02/29534; cited from earlier work
# asthmatic mice [1] = experiment: Airway resistance (Raw) response to methacholine provocation in murine model of asthma (forced oscillation); format: in vivo, Balb/cJ mice
# Experimental: Balb/cJ mice aged 6 weeks (Jackson Animal Laboratory, Bar Harbor, Me.) were housed under specific pathogen-free conditions and fed a chicken ovalbumin-free diet. The Animal Research Ethics Boards of both the University of Houston and the Baylor College of Medicine approved all experiments reported here. […] Mice were sensitized with subcutaneous injection of 25 μg of ovalbumin adsorbed to aluminum hydroxide on protocol days 2, 9, and 16. Subsequently, mice were given 50 μL of saline solution containing 25 μg of ovalbumin intranasally, on a daily basis, from protocol days 23 through 27. A group of ovalbumin-sensitized saline-challenged mice serves as controls for systemic sensitization and respiratory challenges with ovalbumin. Prior to intranasal administrations, mice were sedated with halothane vapor.
# To examine the effects of duration of β-adrenergic ligand therapy on the phenotype of the murine model of asthma, the experimental drugs were administered either acutely or chronically to different groups of asthmatic mice.
# Asthmatic mice on acute therapy were given a single intravenous bolus infusion of either β-adrenergic drug or normal saline on protocol day 28, 15 minutes before airway responsiveness to methacholine was determined. […] Asthmatic mice on chronic therapy were treated with the β-adrenergic drug during protocol days 1 to 28. […] These concentrations were chosen based on those producing therapeutic effects in mice in previously published studies. The non-asthmatic mice were fed normal chow.
# On protocol day 28, mice were anesthetized, tracheotomized, and connected to a computer-controlled small animal ventilator (Flexivent, Scientific Respiratory Equipment, Inc., Montreal, Canada). Airway resistance (Raw) was measured using the forced oscillation technique. The cellular composition of bronchoalveolar lavage fluid (BALF) was also determined.
# To induce airway constriction, a solution containing 150 μg/mL of acetyl-α-methylcholine chloride (methacholine) (Sigma Chemical, St. Louis, Mo.) was infused intravenously at constant rates using a syringe infusion pump (Raze Scientific Instruments, Stanford, Conn.). […] Each methacholine dose was administered for 3 to 5 minutes, during which data were sampled at 1-minute intervals and then averaged.
# The complex input impedance of the respiratory system was computed and the value of the real part of respiratory system impedance at 19.75 Hz was taken to reflect the magnitude of airway resistance (Raw). To examine the degree of airway responsiveness of each animal, the values for Raw as a function of methacholine doses were plotted. The largest value for Raw achieved in response to methacholine stimulation was referred to as Rawpeak. For mice that achieved a plateau in the methacholine dose-Raw response curve, the ED50 was calculated by linear interpolation using the GraphPad Prism4 (GraphPad Software, Inc.). […] The Bonferroni test was used to examine the statistical differences between experimental groups. The effects of acute drug treatments on baseline respiratory system mechanics were assessed using a two-tailed paired t-test. A value of P<0.05 was considered significant.
# For these experiments, salbutamol was used for chronic administration at 0.5 mg/kg/day with a minipump and for acute administration at 0.15 mg/kg by i.v. bolus 15 minutes prior to challenge. Alprenolol was used at a high dose of 7200 ppm in chow or at a low dose of 720 ppm in chow. Carvedilol was used at a high dose of 2400 ppm in chow or at a low dose of 720 ppm in chow.
# β2-adrenergic receptor [2] = biological target: β2-adrenergic receptor (Mus musculus, UniProt P18762); experiment: β-adrenergic receptor density in lung membranes of treated asthmatic mice by ICYP radioligand binding; format: in vivo; conditions: for Bmax (β-adrenergic receptor density): 15 Minutes drug treatment
# β2-adrenergic receptor (Mus musculus, UniProt P18762), sequence (P18762 whole entry): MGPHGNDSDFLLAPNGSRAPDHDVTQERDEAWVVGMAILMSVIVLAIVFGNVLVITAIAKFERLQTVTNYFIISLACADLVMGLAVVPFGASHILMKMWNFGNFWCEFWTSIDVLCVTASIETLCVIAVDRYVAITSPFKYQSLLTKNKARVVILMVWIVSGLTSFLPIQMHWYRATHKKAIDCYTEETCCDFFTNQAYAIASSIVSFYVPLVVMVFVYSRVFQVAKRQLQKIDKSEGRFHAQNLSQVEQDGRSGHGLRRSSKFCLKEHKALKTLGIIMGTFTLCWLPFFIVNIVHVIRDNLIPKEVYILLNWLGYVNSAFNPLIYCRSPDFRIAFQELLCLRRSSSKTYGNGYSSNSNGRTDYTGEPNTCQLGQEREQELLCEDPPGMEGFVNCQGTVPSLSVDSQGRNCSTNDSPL
# Experimental: (§1) β2-adrenergic receptor numbers were measured in asthmatic mice as follows. […] Mice were sacrificed and lung membranes were isolated as follows. Frozen lung tissue was homogenized in an ice-cold buffer containing 0.32 M sucrose and 25 mM Tris (pH 7.4) using a polytron (Pro 200, Pro Scientific, Inc.). The homogenate was centrifuged at 1000×g for 10 min at 4° C. The resulting supernatant was centrifuged at 40,000×g for 20 min at 4° C. The pellet was suspended in an ice-cold 25 mM Tris-HCl buffer (pH 7.4) and centrifuged at 40,000×g for 20 min at 4° C. The final pellet was suspended in 200 μL of 25 mM Tris-HCl (pH 7.4); membrane protein concentration was determined by BCA protein assay kit. […] The incubation was done at 37° C. for 2 h and terminated by rapid vacuum filtration through glass fiber filters. The filters were washed three times with 250 μL of cold wash buffer (25 mM Tris-HCl, pH 7.4) and the radioactivity determined in a counter. […] Receptor densities are expressed as femtomoles of sites per milligram of protein. Bmax is determined by nonlinear regression of the saturation binding curves.
# β2-adrenergic receptor [3] = experiment: as above; format: in vivo; conditions: 2 days of administration
# Experimental: as §1
# patients with CHF = conditions: cited from earlier work
# asthmatic mice [4] = experiment: Combination therapy carvedilol and salbutamol on airway hyperresponsiveness; format: in vivo, Balb/cJ mice; conditions: 28 days carvedilol 2400 ppm in chow, alone or with salbutamol chronic (0.5 mg/kg/day) or acute ([…]); highest dose of methacholine
# Experimental: Mice (Balb/cJ) aged 6 weeks were housed under specific pathogen-free conditions and fed a chicken ovalbumin-free diet. Mice were systemically sensitized with ovalbumin adsorbed to aluminum hydroxide. Mice were treated as follows: CAR/SAL 28D=for 28 days mice (n=6-12) were administered carvedilol (2400 ppm in animal chow) and salbutamol (subcutaneous delivery of 0.5 mg/kg/day in an Alzet #2400 osmotic minipump); NTX S/C=mice (n=6-12) no drug treatment for 28 days; CTRL=mice (n=6-12) no drug treatment for 28 days, not subsequently challenged; CARHD 28D=for 28 days mice (n=6-12) were administered carvedilol only (2400 ppm in animal chow); CARHD 28D SAL AC=for 28 days mice (n=6-12) were administered carvedilol (2400 ppm in animal chow) and 15 minutes prior to measuring airway hyperresponsiveness, salbutamol was administered at a dose of […].
# To measure airway hyperresponsiveness after 28 days, all mice except the CTRL (control) mice were challenged with ovalbumin and then all mice were anesthetized, tracheotomized, and connected to a Flexivent small animal ventilator to measure airway resistance (Raw) by the forced oscillation technique. To induce airway constriction, a solution containing 150 μg/mL of methacholine was infused using a syringe infusion pump. The methacholine infusion was started at 0.008 mL/min and its rate was doubled stepwise up to a maximum […]. […]
# [5] = acute administration; cited from earlier work
# β-adrenergic receptor = conditions: U.S. Pat. No. 5,116,867; cited from earlier work
# [6] = cited from earlier work
# [7] = test system: sensitized and allergen-challenged mice; experiment: Acute nadolol with aminophylline, methacholine-induced bronchoconstriction; format: in vivo; conditions: aminophylline 100 mg/kg i.p. during methacholine; untreated and nadolol-treated mice
# Experimental: Mice were sensitized to the allergen ovalbumin as described in Example 1. […] At time point 1 (time=−10 min) baseline airway resistance of the mice was determined. At time point 2 (time=−5 min) methacholine was infused into mice to reach their EC70.
# asthmatic mice [8] = experiment: Airway resistance (Raw) response to methacholine provocation in murine model of asthma (forced oscillation); format: in vivo, Balb/cJ mice; conditions: 7 days, metoprolol 20 mg/kg 3× daily subcutaneous, timolol 20 mg/kg in chow
# [9] = large trial; cited from earlier work
# [10] = asthmatic mice, chronic: 28 days (chow; salbutamol by osmotic minipump)
# [11] = lung membranes of asthmatic mice, mean±SEM
# [12] = 28 Days drug treatment, lung membranes of asthmatic mice, mean±SEM
smiles,measurement,setting,value
"C=CCc1ccccc1OCC(O)CNC(C)C (stereo not shown) [Alprenolol, alprenolol]",effectiveness on contraction of excised tracheas in response to methacholine (rank),tracheas from the mice,most effective compound
same,"airway responsiveness to methacholine provocation (airway resistance, Raw)",asthmatic mice [1]; [10],does not reduce airway hyperresponsiveness compared to untreated asthmatic mice; also recorded: provides no benefit upon chronic administration
same,Bmax (β-adrenergic receptor density),β2-adrenergic receptor [2]; [11],299.5 ± 12.19 femtomoles of sites per milligram of protein
same,βmax (β-adrenergic receptor density),β2-adrenergic receptor [2]; [12],179.2 ± 53.05 femtomoles of sites per milligram of protein
same,Increased β2AR density,β2-adrenergic receptor [3],no
"CC(C)(Cc1c[nH]c2ccccc12)NCC(O)COc1ccccc1C#N (stereo not shown) [Bucindolol, bucindolol]",clinical benefit in congestive heart failure,patients with CHF,failed to demonstrate any benefit over placebo
"COc1ccccc1OCCNCC(O)COc1cccc2[nH]c3ccccc3c12 (stereo not shown) [Carvedilol, carvedilol]",clinical benefit in congestive heart failure,patients with CHF,significant mortality reduction
same,sensitivity of the responsiveness to methacholine,"asthmatic mice [1]; asthmatic mice, chronic administration",shifts the sensitivity of the responsiveness to methacholine to lower concentrations
same,"airway responsiveness to methacholine provocation (airway resistance, Raw)",asthmatic mice [1]; [10],does reduce airway hyperresponsiveness; also recorded: reduced the responsiveness of asthmatic mice to methacholine provocation
same,protection from airway hyperresponsiveness,"asthmatic mice [1]; chronic administration, high and low dose in chow (Example 6)",providing protection from airway hyperresponsiveness
same,Bmax (β-adrenergic receptor density),β2-adrenergic receptor [2]; [11],86.3 ± 19.42 femtomoles of sites per milligram of protein
same,βmax (β-adrenergic receptor density),β2-adrenergic receptor [2]; [12],904.1 ± 43.46 femtomoles of sites per milligram of protein
same,Increased β2AR density,β2-adrenergic receptor [2]; 28 days of administration,showed an increase in receptor density
same,increase of the level of β2-adrenergic receptors over the non-treated mice,"β2-adrenergic receptor [2]; chronic administration, versus untreated methacholine-challenged asthmatic mice",over 10 fold
same,Increased β2AR density,β2-adrenergic receptor [3],no
same,bronchoconstriction / airway hyperresponsiveness to methacholine,asthmatic mice [4],higher bronchoconstriction than these treatments but less than the non-drug treated sensitized and challenged (NTX S/C) mice
CC(C)NC[C@@H](O)COc1cccc2ccccc12 [D-propranolol],antigen-induced bronchoconstriction and airway hyperresponsiveness,[5],beneficial in inhibiting antigen-induced bronchoconstriction and reducing airway hyperresponsiveness
same,potency in inhibiting the β-adrenergic receptor relative to the L-form,β-adrenergic receptor,1/100
"Cc1ccc(OCC(O)C(C)NC(C)C)c2c1CCC2 (stereo not shown) [ICI-118,551]",effectiveness on contraction of excised tracheas in response to methacholine (rank),tracheas from the mice,"then ICI-118,551"
"CC(C)NC[C@H](O)COc1cccc2ccccc12 [L-form, propranolol]",specific lung resistance,[5],increased specific lung resistance
"CC(C)(C)NCC(O)c1ccc(O)c(CO)c1 (stereo not shown) [Salbutamol, salbutamol]",bioavailability of inhaled drug,[6]; 10 patients with cystic fibrosis versus healthy adults,greater than that in healthy adults
same,"airway responsiveness to methacholine provocation (airway resistance, Raw)","asthmatic mice [1]; asthmatic mice, acute: single intravenous bolus 15 minutes before methacholine",reduced the level of airway responsiveness to methacholine provocation and the level of airway resistance
same,"airway responsiveness to methacholine provocation (airway resistance, Raw)",asthmatic mice [1]; [10],no protection was observed
same,Bmax (β-adrenergic receptor density),β2-adrenergic receptor [2]; [11],256.5 ± 29.24 femtomoles of sites per milligram of protein
same,βmax (β-adrenergic receptor density),β2-adrenergic receptor [2]; [12],97.0 ± 23.02 femtomoles of sites per milligram of protein
same,Kd,"β2-adrenergic receptor [2]; 28 Days drug treatment, lung membranes of asthmatic mice, mean±SEM, read-out: KD (apparent, of radioligand ICYP)",0.225 nM
same,Increased β2AR density,β2-adrenergic receptor [3],no
Cn1c(=O)c2[nH]cnc2n(C)c1=O [aminophylline],airway resistance after aminophylline administration,[7],significant and sustained drop in airway resistance; also recorded: can alleviate the acute effects on airway hyperresponsiveness of nadolol administration
CCCC1O[C@@H]2C[C@H]3[C@@H]4CCC5=CC(=O)C=C[C@]5(C)[C@H]4[C@@H](O)C[C@]3(C)[C@]2(C(=O)CO)O1 (stereo partly shown) [budesonide],"plasma clearance of the 2 enantiomers per kilogram of bodyweight, children versus adults",[6]; 6 children with asthma versus 11 healthy adults,about 50%
COCCc1ccc(OCC(O)CNC(C)C)cc1 (stereo not shown) [metoprolol],clinical benefit in congestive heart failure,patients with CHF,significant mortality reduction
same,airway hyperresponsiveness (Raw) to methacholine,asthmatic mice [8],effective in reducing airway hyperresponsiveness in asthmatic mice
OCc1cc(C(O)CNCCCCCCOCCCCc2ccccc2)ccc1O (stereo not shown) [salmeterol],death rates,[9],stopped due to increased death rates
CC(C)(C)NCC(O)c1cc(O)cc(O)c1 (stereo not shown) [terbutaline],rate of absorption through the lung,[6]; healthy smokers versus healthy nonsmokers,more rapidly in healthy smokers than in healthy nonsmokers
CC(C)(C)NC[C@H](O)COc1nsnc1N1CCOCC1 [timolol],airway hyperresponsiveness (Raw) to methacholine,asthmatic mice [8],effective in reducing airway hyperresponsiveness in asthmatic mice
